Assay results as given in patent publication US20260250318A1, “COMPOSITIONS AND METHODS FOR CROSSING THE BLOOD BRAIN BARRIER” (VOYAGER THERAPEUTICS, INC., priority 2022, published 2026).

Legend:
Settings in all cases: synthetic library passage 3, intravenous, relative to wild-type AAV9
[1] = test system: brain, spinal cord, and DRG of the NHPs; assay: NGS fold enrichment of synthetic library (passage 3) in NHPs, first cross-species screen; type: in vivo, cynomolgus macaques (Macaca fascicularis)
Method in brief: (§1)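 Synthetic capsid library (passage 3) was given intravenously […] to NHPs aged 2-4 years and to BALB/c and C57Bl/6 mice (n=3 each, 6-8 weeks). After about 28 days in vivo, tissue RNA was RT-PCR amplified and NGS-sequenced; values are fold enrichment per variant relative to wild-type AAV9.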

[2] = test system: brain; assay: NGS fold enrichment of synthetic library (passage 3) in BALB/c mice, first cross-species screen; type: in vivo
Method in brief: as §1

[3] = test system: brain; assay: NGS fold enrichment of synthetic library (passage 3) in C57Bl/6 mice, first cross-species screen; type: in vivo
Method in brief: as §1

[4] = RNA from spinal cord of NHPs, NGS
[5] = RNA from brain of BALB/c mice, NGS
[6] = RNA from brain of C57Bl/6 mice, NGS

Sequence: GSGLGMSTGQNQQT
- Fold enrichment over AAV9 in the brain of NHPs ([1]; RNA NGS, brain of NHPs): 3.110 fold
- Fold enrichment over AAV9 in the spinal cord of NHPs ([1]; RNA NGS, spinal cord of NHPs): 5.499 fold
- Fold enrichment over AAV9 in the brain of Mice (BALB/c) ([2]; RNA NGS, brain of BALB/c mice): 0.660 fold
- Fold enrichment over AAV9 in the brain of Mice (C57Bl/6) ([3]; RNA NGS, brain of C57Bl/6 mice): 0.458 fold

Sequence: GSGLGRAPVQNQQT
- Fold enrichment over AAV9 in the brain of NHPs ([1]; RNA NGS, brain of NHPs): 2.503 fold
- Fold enrichment over AAV9 in the spinal cord of NHPs ([1]; RNA NGS, spinal cord of NHPs): 2.214 fold
- Fold enrichment over AAV9 in the brain of Mice (BALB/c) ([2]; RNA NGS, brain of BALB/c mice): 0.383 fold
- Fold enrichment over AAV9 in the brain of Mice (C57Bl/6) ([3]; RNA NGS, brain of C57Bl/6 mice): 0.841 fold

Sequence: GSGLIRTAAQNQQT
- Fold enrichment over AAV9 in the brain of NHPs ([1]; RNA NGS, brain of NHPs): 1.822 fold
- Fold enrichment over AAV9 in the spinal cord of NHPs ([1]; RNA NGS, spinal cord of NHPs): 8.339 fold
- Fold enrichment over AAV9 in the brain of Mice (BALB/c) ([2]; RNA NGS, brain of BALB/c mice): 0.998 fold
- Fold enrichment over AAV9 in the brain of Mice (C57Bl/6) ([3]; RNA NGS, brain of C57Bl/6 mice): 0.808 fold

Sequence: GSGLKPNVLQNQQT
- Fold enrichment over AAV9 in the brain of NHPs ([1]; RNA from brain of NHPs, NGS): 1.263 fold
- Fold enrichment over AAV9 in the spinal cord of NHPs [1, 4]: 0.975 fold
- Fold enrichment over AAV9 in the brain of Mice (BALB/c) [2, 5]: 0.268 fold
- Fold enrichment over AAV9 in the brain of Mice (C57Bl/6) [3, 6]: 0.701 fold

Sequence: GSGLKWSTLQNQQT
- Fold enrichment over AAV9 in the brain of NHPs ([1]; RNA NGS, brain of NHPs): 1.556 fold
- Fold enrichment over AAV9 in the spinal cord of NHPs ([1]; RNA NGS, spinal cord of NHPs): 0.000 fold
- Fold enrichment over AAV9 in the brain of Mice (BALB/c) ([2]; RNA NGS, brain of BALB/c mice): 2.442 fold
- Fold enrichment over AAV9 in the brain of Mice (C57Bl/6) ([3]; RNA NGS, brain of C57Bl/6 mice): 1.134 fold

Sequence: GSGLLHGKLQNQQT
- Fold enrichment over AAV9 in the brain of NHPs ([1]; RNA NGS, brain of NHPs): 2.032 fold
- Fold enrichment over AAV9 in the spinal cord of NHPs ([1]; RNA NGS, spinal cord of NHPs): 2.521 fold
- Fold enrichment over AAV9 in the brain of Mice (BALB/c) ([2]; RNA NGS, brain of BALB/c mice): 0.917 fold
- Fold enrichment over AAV9 in the brain of Mice (C57Bl/6) ([3]; RNA NGS, brain of C57Bl/6 mice): 1.068 fold

Sequence: GSGLLHRAQQNQQT
- Fold enrichment over AAV9 in the brain of NHPs ([1]; RNA NGS, brain of NHPs): 1.569 fold
- Fold enrichment over AAV9 in the spinal cord of NHPs ([1]; RNA NGS, spinal cord of NHPs): 0.724 fold
- Fold enrichment over AAV9 in the brain of Mice (BALB/c) ([2]; RNA NGS, brain of BALB/c mice): 0.646 fold
- Fold enrichment over AAV9 in the brain of Mice (C57Bl/6) ([3]; RNA NGS, brain of C57Bl/6 mice): 1.583 fold

Sequence: GSGLLPLSSQNQQT
- Fold enrichment over AAV9 in the brain of NHPs ([1]; RNA NGS, brain of NHPs): 2.612 fold
- Fold enrichment over AAV9 in the spinal cord of NHPs ([1]; RNA NGS, spinal cord of NHPs): 1.130 fold
- Fold enrichment over AAV9 in the brain of Mice (BALB/c) ([2]; RNA NGS, brain of BALB/c mice): 0.293 fold
- Fold enrichment over AAV9 in the brain of Mice (C57Bl/6) ([3]; RNA NGS, brain of C57Bl/6 mice): 0.501 fold

Sequence: GSGLLYHDQQNQQT
- Fold enrichment over AAV9 in the brain of NHPs ([1]; RNA NGS, brain of NHPs): 1.565 fold
- Fold enrichment over AAV9 in the spinal cord of NHPs ([1]; RNA NGS, spinal cord of NHPs): 2.760 fold
- Fold enrichment over AAV9 in the brain of Mice (BALB/c) ([2]; RNA NGS, brain of BALB/c mice): 0.107 fold
- Fold enrichment over AAV9 in the brain of Mice (C57Bl/6) ([3]; RNA NGS, brain of C57Bl/6 mice): 0.405 fold

Sequence: GSGLPDRNLQNQQT
- Fold enrichment over AAV9 in the brain of NHPs ([1]; RNA NGS, brain of NHPs): 1.471 fold
- Fold enrichment over AAV9 in the spinal cord of NHPs ([1]; RNA NGS, spinal cord of NHPs): 7.306 fold
- Fold enrichment over AAV9 in the brain of Mice (BALB/c) ([2]; RNA NGS, brain of BALB/c mice): 0.611 fold
- Fold enrichment over AAV9 in the brain of Mice (C57Bl/6) ([3]; RNA NGS, brain of C57Bl/6 mice): 1.136 fold

Sequence: GSGLPVLSGQNQQT
- Fold enrichment over AAV9 in the brain of NHPs ([1]; RNA NGS, brain of NHPs): 3.100 fold
- Fold enrichment over AAV9 in the spinal cord of NHPs ([1]; RNA NGS, spinal cord of NHPs): 4.149 fold
- Fold enrichment over AAV9 in the brain of Mice (BALB/c) ([2]; RNA NGS, brain of BALB/c mice): 0.210 fold
- Fold enrichment over AAV9 in the brain of Mice (C57Bl/6) ([3]; RNA NGS, brain of C57Bl/6 mice): 0.631 fold

Sequence: GSGLRQTSQQNQQT
- Fold enrichment over AAV9 in the brain of NHPs ([1]; RNA NGS, brain of NHPs): 1.537 fold
- Fold enrichment over AAV9 in the spinal cord of NHPs ([1]; RNA NGS, spinal cord of NHPs): 2.067 fold
- Fold enrichment over AAV9 in the brain of Mice (BALB/c) ([2]; RNA NGS, brain of BALB/c mice): 0.705 fold
- Fold enrichment over AAV9 in the brain of Mice (C57Bl/6) ([3]; RNA NGS, brain of C57Bl/6 mice): 0.978 fold

Sequence: GSGLRTMTTQNQQT
- Fold enrichment over AAV9 in the brain of NHPs ([1]; RNA NGS, brain of NHPs): 1.900 fold
- Fold enrichment over AAV9 in the spinal cord of NHPs ([1]; RNA NGS, spinal cord of NHPs): 8.939 fold
- Fold enrichment over AAV9 in the brain of Mice (BALB/c) ([2]; RNA NGS, brain of BALB/c mice): 0.594 fold
- Fold enrichment over AAV9 in the brain of Mice (C57Bl/6) ([3]; RNA NGS, brain of C57Bl/6 mice): 0.838 fold

Sequence: GSGLSGITMQNQQT
- Fold enrichment over AAV9 in the brain of NHPs ([1]; RNA NGS, brain of NHPs): 1.792 fold
- Fold enrichment over AAV9 in the spinal cord of NHPs ([1]; RNA NGS, spinal cord of NHPs): 14.796 fold
- Fold enrichment over AAV9 in the brain of Mice (BALB/c) ([2]; RNA NGS, brain of BALB/c mice): 0.496 fold
- Fold enrichment over AAV9 in the brain of Mice (C57Bl/6) ([3]; RNA NGS, brain of C57Bl/6 mice): 0.862 fold

Sequence: GSGLSHATQQNQQT
- Fold enrichment over AAV9 in the brain of NHPs ([1]; RNA NGS, brain of NHPs): 2.640 fold
- Fold enrichment over AAV9 in the spinal cord of NHPs ([1]; RNA NGS, spinal cord of NHPs): 7.819 fold
- Fold enrichment over AAV9 in the brain of Mice (BALB/c) ([2]; RNA NGS, brain of BALB/c mice): 0.638 fold
- Fold enrichment over AAV9 in the brain of Mice (C57Bl/6) ([3]; RNA NGS, brain of C57Bl/6 mice): 1.111 fold

Sequence: GSGLSHSHQQNQQT
- Fold enrichment over AAV9 in the brain of NHPs ([1]; RNA NGS, brain of NHPs): 2.109 fold
- Fold enrichment over AAV9 in the spinal cord of NHPs ([1]; RNA NGS, spinal cord of NHPs): 5.852 fold
- Fold enrichment over AAV9 in the brain of Mice (BALB/c) ([2]; RNA NGS, brain of BALB/c mice): 0.592 fold
- Fold enrichment over AAV9 in the brain of Mice (C57Bl/6) ([3]; RNA NGS, brain of C57Bl/6 mice): 1.256 fold

Sequence: GSGLSVHLAQNQQT
- Fold enrichment over AAV9 in the brain of NHPs ([1]; RNA NGS, brain of NHPs): 2.657 fold
- Fold enrichment over AAV9 in the spinal cord of NHPs ([1]; RNA NGS, spinal cord of NHPs): 1.234 fold
- Fold enrichment over AAV9 in the brain of Mice (BALB/c) ([2]; RNA NGS, brain of BALB/c mice): 0.508 fold
- Fold enrichment over AAV9 in the brain of Mice (C57Bl/6) ([3]; RNA NGS, brain of C57Bl/6 mice): 0.806 fold

Sequence: GSGLSVQSGQNQQT
- Fold enrichment over AAV9 in the brain of NHPs ([1]; RNA NGS, brain of NHPs): 2.637 fold
- Fold enrichment over AAV9 in the spinal cord of NHPs ([1]; RNA NGS, spinal cord of NHPs): 2.929 fold
- Fold enrichment over AAV9 in the brain of Mice (BALB/c) ([2]; RNA NGS, brain of BALB/c mice): 1.005 fold
- Fold enrichment over AAV9 in the brain of Mice (C57Bl/6) ([3]; RNA NGS, brain of C57Bl/6 mice): 1.695 fold

Sequence: GSGLTLSATQNQQT
- Fold enrichment over AAV9 in the brain of NHPs ([1]; RNA NGS, brain of NHPs): 1.901 fold
- Fold enrichment over AAV9 in the spinal cord of NHPs ([1]; RNA NGS, spinal cord of NHPs): 0.193 fold
- Fold enrichment over AAV9 in the brain of Mice (BALB/c) ([2]; RNA NGS, brain of BALB/c mice): 0.340 fold
- Fold enrichment over AAV9 in the brain of Mice (C57Bl/6) ([3]; RNA NGS, brain of C57Bl/6 mice): 0.708 fold

Sequence: GSGMIHTTAQNQQT
- Fold enrichment over AAV9 in the brain of NHPs ([1]; RNA from brain of NHPs, NGS): 1.285 fold
- Fold enrichment over AAV9 in the spinal cord of NHPs [1, 4]: 0.105 fold
- Fold enrichment over AAV9 in the brain of Mice (BALB/c) [2, 5]: 0.276 fold
- Fold enrichment over AAV9 in the brain of Mice (C57Bl/6) [3, 6]: 0.678 fold
